According to the supplement of paper PMC11061612:

Columns and labels:
[1] = compound: COc1cccc(OCCCN)c1-c1cc(Nc2cnc(C#N)cn2)n[nH]1 [Prexasertib]; settings: max 1 µM
Method in brief: (§1)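 Cancer cell lines in 1536-well plates (7.5 μl DMEM/F12 or RPMI, 10% FBS) were held 24 hours at 37°C and 5% CO2 and then dosed for 72 hours at a final DMSO of typically 0.2%. Viability was taken from CellTiter-Glo 2.0 luminescence, scaled between blank-well and DMSO-well means. Curves were fitted as two-parameter logistic models with a non-linear mixed effects model, from which the single-agent IC50 was taken.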

[2] = compound: C1CN(CCC1(C(=O)N[C@@H](CCO)C2=CC=C(C=C2)Cl)N)C3=NC=NC4=C3C=CN4 [Capivasertib]; settings: max 3 µM
Method in brief: as §1

[3] = compound: CN(C)CCCOc1ccc(-c2ccc3ncc4c(c3c2)n(C2CCOCC2)c(=O)n4C)cn1 [AZD0156]
Method in brief: as §1

[4] = compound: COc1cccc2c1C(=O)c1c(O)c3c(c(O)c1C2=O)C[C@@](O)(C(=O)CO)C[C@@H]3O[C@H]1C[C@H](N)[C@H](O)[C@H](C)O1 [Doxorubicin]; settings: max 1 µM
Method in brief: as §1

[5] = compound: CCc1c2c(nc3ccc(O)cc13)-c1cc3c(c(=O)n1C2)COC(=O)[C@]3(O)CC [SN-38]; settings: max 0.3 µM
Method in brief: as §1

[6] = compound: Cc1nc(-c2cn3c(n2)-c2ccc(-c4cnn(C(C)(C)C(N)=O)c4)cc2OCC3)n(C(C)C)n1 [Taselisib]; settings: max 10 µM
Method in brief: as §1

[7] = compound: CN(CC[C@H](CSC1=CC=CC=C1)NC2=C(C=C(C=C2)S(=O)(=O)NC(=O)C3=CC=C(C=C3)N4CCC(CC4)[C@H](C5=CC=CC=C5C6=CC=C(C=C6)Cl)O)S(=O)(=O)C(F)(F)F)CCO [AZD4320]; settings: max 1 µM
Method in brief: as §1

[8] = compound: CC(=O)Nc1cccc(-n2c(=O)n(C3CC3)c(=O)c3c(Nc4ccc(I)cc4F)n(C)c(=O)c(C)c32)c1 [Trametinib]; settings: max 1 µM
Method in brief: as §1

[9] = compound: C[C@@H](Nc1cc(F)cc(F)c1)c1cc(C(=O)N(C)C)cc2c(=O)cc(N3CCOCC3)oc12 [AZD8186]
Method in brief: as §1

[10] = compound: C=CCn1c(=O)c2cnc(Nc3ccc(N4CCN(C)CC4)cc3)nc2n1-c1cccc(C(C)(C)O)n1 [AZD1775]
Method in brief: as §1

[11] = compound: O=C(c1cc(Cc2n[nH]c(=O)c3ccccc23)ccc1F)N1CCN(C(=O)C2CC2)CC1 [Olaparib]; settings: max 10 µM
Method in brief: as §1

[12] = compound: C[C@@H]1COCCN1C2=NC(=NC(=C2)C3(CC3)[S@](=N)(=O)C)C4=C5C=CNC5=NC=C4 [AZD6738]; settings: max 10 µM
Method in brief: as §1

[13] = compound: Cn1cnc2c(F)c(Nc3ccc(Br)cc3Cl)c(C(=O)NOCCO)cc21 [Selumetinib]
Method in brief: as §1

[14] = compound: COc1cc(Nc2ncc3c(n2)-c2ccc(Cl)cc2C(c2c(F)cccc2OC)=NC3)ccc1C(=O)O [Alisertib]; settings: max 10 µM
Method in brief: as §1

[15] = compound: CCN(CCO)CCCOc1ccc2c(Nc3cc(CC(=O)Nc4cccc(F)c4)[nH]n3)ncnc2c1 [AZD2811]; settings: max 1 µM
Method in brief: as §1

[16] = compound: Cc1cc2ncnn2cc1Nc1ncc2c(n1)n(C1CCOCC1)c(=O)n2C [AZD7648]; settings: max 10 µM
Method in brief: as §1

[17] = compound: Cc1c2c(nn1C)CSCc1cc(n(C)n1)CSc1cc(c3ccccc3c1)OCCCc1c(C(=O)O)n(C)c3c-2c(Cl)ccc13 [AZD5991]; settings: max 1 µM
Method in brief: as §1

[18] = compound: CC1(C)CCC(CN2CCN(c3ccc(C(=O)NS(=O)(=O)c4ccc(NCC5CCOCC5)c([N+](=O)[O-])c4)c(Oc4cnc5[nH]ccc5c4)c3)CC2)=C(c2ccc(Cl)cc2)C1 [Venetoclax]; settings: max 1 µM
Method in brief: as §1

[19] = compound: CC1=CN2[C@@H](C1)C=NC3=CC(=C(C=C3C2=O)OC)OCCCCCOC4=C(C=C5C(=C4)N=C[C@@H]6CC(=CN6C5=O)C)OC [SG3199]; settings: max 0.001 µM
Method in brief: as §1

[20] = compound: CC(=O)O[C@H]1C(=O)[C@@]2(C)[C@H]([C@H](OC(=O)c3ccccc3)[C@]3(O)C[C@H](OC(=O)[C@H](O)[C@@H](NC(=O)c4ccccc4)c4ccccc4)C(C)=C1C3(C)C)[C@]1(OC(C)=O)CO[C@@H]1C[C@@H]2O [Paclitaxel]; settings: max 3 µM
Method in brief: as §1

[21] = compound: C1CN(CCC1(C(=O)N[C@@H](CCO)C2=CC=C(C=C2)Cl)N)C3=NC=NC4=C3C=CN4 [AZD5363]; settings: max 10 µM
Method in brief: as §1

[22] = compound: O=C(Nc1ccc2[nH]nc(-c3ccncc3)c2c1)[C@@H]1CCN(CC(=O)N2CCN(c3ccc(-c4ncccn4)cc3)CC2)C1; settings: max 5 µM
Method in brief: as §1

[23] = compound: CC(C)n1c(=O)n(C)c2cnc3cc(F)c(-c4ccc(OCCCN5CCCCC5)nc4)cc3c21 [AZD1390]; settings: max 0.3 µM
Method in brief: as §1

[24] = compound: CC(=O)c1c(C)c2cnc(Nc3ccc(N4CCNCC4)cn3)nc2n(C2CCCC2)c1=O [Palbociclib]; settings: max 10 µM
Method in brief: as §1

[25] = compound: NC1(c2ccc(-c3nc4ccn5c(=O)[nH]nc5c4cc3-c3ccccc3)cc2)CCC1 [MK-2206]; settings: max 10 µM
Method in brief: as §1

[26] = compound: CC1=C(C(=CC=C1)Cl)NC(=O)C2=CN=C(S2)NC3=CC(=NC(=N3)C)N4CCN(CC4)CCO [Dasatinib]; settings: max 2 µM
Method in brief: as §1

[27] = compound: CS(=O)(=O)CCNCc1ccc(-c2ccc3ncnc(Nc4ccc(OCc5cccc(F)c5)c(Cl)c4)c3c2)o1 [Lapatinib]; settings: max 10 µM
Method in brief: as §1

[28] = compound: Nc1ccn([C@@H]2O[C@H](CO)[C@@H](O)C2(F)F)c(=O)n1 [Gemcitabine]; settings: max 0.3 µM
Method in brief: as §1

[29] = compound: COc1cc([C@@H]2c3cc4c(cc3[C@@H](O[C@@H]3O[C@@H]5CO[C@@H](C)O[C@H]5[C@H](O)[C@H]3O)[C@H]3COC(=O)[C@H]23)OCO4)cc(OC)c1O [Etoposide]; settings: max 10 µM
Method in brief: as §1

[30] = compound: C1CC(C1)(C(=O)[O-])C(=O)[O-].N.N.[Pt+2] [Carboplatin]; settings: max 10 µM
Method in brief: as §1

[31] = compound: C[C@@H](c1ccc2nccn2c1)n1nnc2ncc(-c3cnn(C)c3)nc21 [Savolitinib]; settings: max 1 µM
Method in brief: as §1

[32] = compound: O=c1[nH]cc(F)c(=O)[nH]1 [5-Fluorouracil]; settings: max 20 µM
Method in brief: as §1

[33] = compound: COc1cc2ncnc(Nc3ccc(F)c(Cl)c3)c2cc1OCCCN1CCOCC1 [Gefitinib]; settings: max 10 µM
Method in brief: as §1

[34] = compound: N#Cc1cnc(Nc2cc(NC[C@H]3CNCCO3)c(C(F)(F)F)cn2)cn1 [SRA737]; settings: max 10 µM
Method in brief: as §1

[35] = compound: COc1nnc2ccc(N3CCC(c4ccc(OCCN5CCN(C)C(=O)[C@H]5C)cc4)CC3)nn12 [AZD5153]; settings: max 1 µM
Method in brief: as §1

[36] = compound: C[C@@H](Oc1cc(-c2cnn(C3CCNCC3)c2)cnc1N)c1c(Cl)ccc(F)c1Cl [Crizotinib]; settings: max 10 µM
Method in brief: as §1

Row | Cell Line | IC50, cell viability 72 h [1] | IC50, cell viability 72 h [2] | IC50, cell viability 72 h ([3]; max 1 µM) | IC50, cell viability 72 h [4] | IC50, cell viability 72 h [5] | IC50, cell viability 72 h [6] | IC50, cell viability 72 h [7] | IC50, cell viability 72 h [8] | IC50, cell viability 72 h ([9]; max 3 µM) | IC50, cell viability 72 h ([10]; max 1 µM) | IC50, cell viability 72 h [11] | IC50, cell viability 72 h [12] | IC50, cell viability 72 h ([13]; max 3 µM) | IC50, cell viability 72 h [14] | IC50, cell viability 72 h [15] | IC50, cell viability 72 h [16] | IC50, cell viability 72 h [17] | IC50, cell viability 72 h [18] | IC50, cell viability 72 h [19] | IC50, cell viability 72 h [20] | IC50, cell viability 72 h [21] | IC50, cell viability 72 h [22] | IC50, cell viability 72 h [23] | IC50, cell viability 72 h [24] | IC50, cell viability 72 h [25] | IC50, cell viability 72 h [26] | IC50, cell viability 72 h [27] | IC50, cell viability 72 h ([3]; max 3 µM) | IC50, cell viability 72 h [28] | IC50, cell viability 72 h [29] | IC50, cell viability 72 h [30] | IC50, cell viability 72 h [31] | IC50, cell viability 72 h ([9]; max 10 µM) | IC50, cell viability 72 h ([10]; max 3 µM) | IC50, cell viability 72 h [32] | IC50, cell viability 72 h [33] | IC50, cell viability 72 h [34] | IC50, cell viability 72 h [35] | IC50, cell viability 72 h [36] | IC50, cell viability 72 h ([13]; max 10 µM)
1 | CTB-1 (B-Cell Non-Hodgkin's Lymphoma) | 16.4 nM | > 3000 nM | > 1000 nM | 248 nM | 7.48 nM | > 10000 nM | > 1000 nM | > 1000 nM | > 3000 nM | 388 nM | > 10 µM | 2010 nM | > 3 µM | 435 nM | 249 nM | > 10 µM | > 1000 nM | > 1000 nM | > 1 nM | – | – | – | – | – | – | – | – | – | – | – | – | – | – | – | – | – | – | – | – | –
2 | RKO (Colorectal Carcinoma) | 35.4 nM | – | – | 240 nM | 16.5 nM | 2950 nM | > 1000 nM | 75.3 nM | – | – | > 10 µM | 2040 nM | – | 7230 nM | > 1000 nM | > 10 µM | > 1000 nM | > 1000 nM | > 1 nM | 3.91 nM | 5.24 µM | 797 nM | > 300 nM | > 10 µM | > 10 µM | > 2000 nM | > 10 µM | > 3000 nM | 9.84 nM | 6.79 µM | > 10 µM | > 1000 nM | > 10000 nM | 787 nM | 8.59 µM | > 10 µM | 7.18 µM | 67.2 nM | 9.5 µM | 6.52 µM
3 | RPMI-6666 (Non-Cancerous) | 5.81 nM | – | – | 58.3 nM | 2.31 nM | 621 nM | 37.1 nM | > 1000 nM | – | – | > 10 µM | 3900 nM | – | 406 nM | 469 nM | > 10 µM | 731 nM | 174 nM | > 1 nM | 3.63 nM | 2.95 µM | > 5000 nM | > 300 nM | 8.62 µM | 4.64 µM | 170 nM | > 10 µM | > 3000 nM | 5.75 nM | 0.401 µM | > 10 µM | > 1000 nM | 1330 nM | 234 nM | 3.43 µM | > 10 µM | 2.46 µM | 154 nM | 6.93 µM | > 10 µM
4 | RT-112 (Bladder Carcinoma) | 31.2 nM | – | – | > 1000 nM | 255 nM | 2950 nM | > 1000 nM | 305 nM | – | – | > 10 µM | 4410 nM | – | 2220 nM | > 1000 nM | > 10 µM | 413 nM | > 1000 nM | > 1 nM | 9.52 nM | > 10 µM | 3600 nM | > 300 nM | > 10 µM | > 10 µM | > 2000 nM | > 10 µM | > 3000 nM | 291 nM | > 10 µM | > 10 µM | > 1000 nM | > 10000 nM | 549 nM | > 20 µM | > 10 µM | > 10 µM | > 1000 nM | > 10 µM | > 10 µM
5 | SH-4 (Melanoma) | 187 nM | – | – | > 1000 nM | > 300 nM | > 10000 nM | > 1000 nM | 2.59 nM | – | – | > 10 µM | > 10000 nM | – | > 10000 nM | > 1000 nM | > 10 µM | > 1000 nM | > 1000 nM | > 1 nM | 2550 nM | > 10 µM | 111 nM | > 300 nM | > 10 µM | > 10 µM | > 2000 nM | > 10 µM | > 3000 nM | > 300 nM | > 10 µM | > 10 µM | > 1000 nM | > 10000 nM | 1490 nM | > 20 µM | > 10 µM | > 10 µM | 432 nM | > 10 µM | 0.259 µM
6 | SIMA (Neuroblastoma) | 7.67 nM | > 3000 nM | – | 706 nM | 3.66 nM | – | 299 nM | – | > 3000 nM | – | > 10 µM | 2350 nM | > 3 µM | – | > 1000 nM | > 10 µM | > 1000 nM | > 1000 nM | > 1 nM | – | – | – | – | – | – | – | – | > 3000 nM | – | – | – | – | – | 211 nM | – | – | – | – | – | –
